{"source": "patent US20100234377A1", "about": "(priority 2007, published 2010)", "key": {"[1]": {"molecular_target": "T1, human Prostaglandin D Synthase (GST2) (Homo sapiens, UniProt O60760)", "T1 construct": "the open reading frame of human Prostaglandin D Synthase was amplified from cDNA; made in house; host or cells: E. coli TOP10F'", "T1 sequence (O60760 whole entry)": "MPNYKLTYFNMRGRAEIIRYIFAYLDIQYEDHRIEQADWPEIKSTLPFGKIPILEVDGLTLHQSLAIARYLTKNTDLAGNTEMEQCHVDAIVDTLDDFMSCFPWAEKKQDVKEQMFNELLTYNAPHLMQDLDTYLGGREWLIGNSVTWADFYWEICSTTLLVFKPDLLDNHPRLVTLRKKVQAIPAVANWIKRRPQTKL", "assay": "Homogeneous biochemical assay of human Prostaglandin D Synthase (GST2) based on its glutathion-S-transferase activity (GSH conjugation to monochlorobimane, fluorescence)", "in_short": "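N-His-tagged human PGD synthase from E. coli, assayed via its GST activity: GSH conjugation to monochlorobimane in 50 mM MES/KOH pH 6.1, 0.7 mM GSH, 2 mM MgCl2. Compounds at final picomolar to triple-digit micromolar concentrations.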"}, "[2]": {"assay": "Mouse microsomal metabolism assay", "type": "in vitro ADME", "conditions": "mouse hepatic microsomes, 37° C., phosphate buffer pH 7.4, NADPH regenerating system; for half-life: liver microsomes, read-out: Mouse t½", "procedure": "Selected GST2 Inhibitors from Formula I Assessed in Mouse Microsomal Metabolism Assay\nSelected GST2 inhibitors of General Formula (I) were screened in a mouse hepatic microsome assay to determine microsomal metabolism.\nTest Articles were prepared in 50% acetonitrile.\nMouse hepatic microsomes supplied by BD GenTest Inc or an equivalent reputable supplier.\nTest Articles are added to incubation plates containing phosphate buffer pH 7.4 and microsomes at a suitable protein concentration. Incubation plates are placed on a shaking water bath at 37° C. for 5 minutes pre-incubation. An aliquot of the reaction mixture is taken and added to acetonitrile (3:1). This is designated time […]. NADPH regenerating system in phosphate buffer pH 7.4 is added to initiate reactions. Aliquots from the incubation wells are taken at a number of time points and added to acetonitrile. Control incubations contained no microsomes or compounds with known microsomal stabilities. Samples were subject to centrifugation to remove denatured protein and the supernatants were analysed by LCMS.\nHalf lives were calculated from the log vs time transformed data according to the following equation: […]\nWhere λ is the slope of the linear regression line under first order (Test Article concentration <Km) conditions."}, "[3]": {"conditions": "given beside the compound name in Examples 1 to 167, read-out: Potency Range (GST2 IC50)"}, "[4]": {"conditions": "Table 2, comparative examples, read-out: GST2 inhibition IC50"}}, "note": "Where two headings read alike, the source gives them in different places.", "data": [{"molecule": "4-(2-Fluoro-4-{[4-(3-fluoro-benzoyl)-piperazine-1-carbonyl]-amino}-phenyl)-piperazine-1-carboxylic acid isopropyl ester [Compound 50]", "values": [{"measurement": "IC50", "setting": "[1]; [3]", "value": "11 to 100", "unit": "nM"}, {"measurement": "Mouse t½", "setting": "[2]", "value": ">60", "unit": "min"}]}, {"molecule": "O=C(Nc1ccc(OC(F)(F)F)cc1)N1CCN(C(=O)c2cccc(F)n2)CC1", "note": "[Compound 21, 4-(6-Fluoro-pyridine-2-carbonyl)-piperazine-1-carboxylic acid (4-trifluoromethoxy-phenyl)-amide]", "values": [{"measurement": "IC50", "setting": "[1]; [3]", "value": "101 to 1000", "unit": "nM"}, {"measurement": "half-life", "setting": "[2]", "value": "> 60", "unit": "min"}]}, {"molecule": "O=C(Nc1nc2cc(Cl)ccc2o1)N1CCN(C(=O)c2cccc(F)c2)CC1", "note": "[Compound 39, 4-(3-Fluoro-benzoyl)-piperazine-1-carboxylic acid (5-chloro-benzooxazol-2-yl)-amide]", "values": [{"measurement": "IC50", "setting": "[1]; [3]", "value": "101 to 1000", "unit": "nM"}, {"measurement": "half-life", "setting": "[2]", "value": "> 60", "unit": "min"}]}, {"molecule": "CC(C)NC(=O)N1CCN(c2ccc(NC(=O)N3CCN(C(=O)c4cccc(F)c4)CC3)cc2F)CC1", "note": "[Compound 52, 4-(3-fluorobenzoyl)-N-{3-fluoro-4-[4-(isopropylcarbamoyl)piperazin-1-yl]phenyl}piperazine-1-carboxamide]", "values": [{"measurement": "IC50", "setting": "[1]; [3]", "value": "11 to 100", "unit": "nM"}, {"measurement": "half-life", "setting": "[2]", "value": "> 60", "unit": "min"}]}, {"molecule": "CN1CCN(c2ccc(NC(=O)N3CCN(C(=O)c4cccc(F)c4)CC3)cc2F)CC1", "note": "[Compound 60, 4-(3-Fluoro-benzoyl)-piperazine-1-carboxylic acid [3-fluoro-4-(4-methyl-piperazin-1-yl)-phenyl]-amide]", "values": [{"measurement": "IC50", "setting": "[1]; [3]", "value": "101 to 1000", "unit": "nM"}, {"measurement": "half-life", "setting": "[2]", "value": 58.7, "unit": "min"}]}, {"molecule": "O=C(Nc1ccc(Cl)nc1)N1CCN(C(=O)c2cccc(F)c2)CC1", "note": "[Compound 63, 4-(3-Fluoro-benzoyl)-piperazine-1-carboxylic acid (6-chloro-pyridin-3-yl)-amide]", "values": [{"measurement": "IC50", "setting": "[1]; [3]", "value": "101 to 1000", "unit": "nM"}, {"measurement": "half-life", "setting": "[2]", "value": "> 60", "unit": "min"}]}, {"molecule": "O=C(Nc1ccc(C(=O)N2CCOCC2)cc1)N1CCN(C(=O)c2cccc(F)c2)CC1", "note": "[Compound 101, 4-(3-Fluoro-benzoyl)-piperazine-1-carboxylic acid [4-(morpholine-4-carbonyl)-phenyl]-amide]", "values": [{"measurement": "IC50", "setting": "[1]; [3]", "value": "101 to 1000", "unit": "nM"}, {"measurement": "half-life", "setting": "[2]", "value": "> 60", "unit": "min"}]}, {"molecule": "NC(=O)c1ccc(NC(=O)N2CCN(C(=O)c3cccc(F)c3)CC2)cc1", "note": "[Compound 105, 4-(3-Fluoro-benzoyl)-piperazine-1-carboxylic acid (4-carbamoyl-phenyl)-amide]", "values": [{"measurement": "IC50", "setting": "[1]; [3]", "value": "101 to 1000", "unit": "nM"}, {"measurement": "half-life", "setting": "[2]", "value": "> 60", "unit": "min"}]}, {"molecule": "O=C(Nc1cccc(NC(=O)N2CCN(C(=O)c3cccc(F)c3)CC2)c1)c1ccc[n+]([O-])c1", "note": "[Compound 109, 4-(3-Fluoro-benzoyl)-piperazine-1-carboxylic acid {3-[(1-oxy-pyridine-3-carbonyl)-amino]-phenyl}-amide]", "values": [{"measurement": "IC50", "setting": "[1]; [3]", "value": "101 to 1000", "unit": "nM"}, {"measurement": "half-life", "setting": "[2]", "value": "> 60", "unit": "min"}]}, {"molecule": "O=C(Nc1ccc(C(F)(F)F)cc1)N1CCN(C(=O)c2ccccc2)CC1", "note": "[Compound 164, 4-Benzoyl-piperazine-1-carboxylic acid (4-trifluoromethyl-phenyl)-amide]", "values": [{"measurement": "IC50", "setting": "[1]; [3]", "value": "11 to 100", "unit": "nM"}]}, {"molecule": "O=C(Nc1ccc(C(F)(F)F)cc1)N1CCN(C(=O)c2cccc(Cl)c2)CC1", "note": "[Compound 165, 4-(3-Chloro-benzoyl)-piperazine-1-carboxylic acid (4-trifluoromethyl-phenyl)-amide]", "values": [{"measurement": "IC50", "setting": "[1]; [3]", "value": "101 to 1000", "unit": "nM"}]}, {"molecule": "O=C(Nc1cccc(Nc2ccccc2)c1)N1CCN(C(=O)c2cccc(F)c2)CC1", "note": "[Compound 166, 4-(3-Fluoro-benzoyl)-piperazine-1-carboxylic acid (3-phenylamino-phenyl)-amide]", "values": [{"measurement": "IC50", "setting": "[1]; [3]", "value": "101 to 1000", "unit": "nM"}]}, {"molecule": "O=C(Nc1cccc(Nc2ccc(F)cc2)c1)N1CCN(C(=O)c2cccc(F)c2)CC1", "note": "[Compound 167, 4-(3-Fluoro-benzoyl)-piperazine-1-carboxylic acid [3-(4-fluoro-phenylamino)-phenyl]-amide]", "values": [{"measurement": "IC50", "setting": "[1]; [3]", "value": "101 to 1000", "unit": "nM"}]}, {"molecule": "O=C(Nc1ccc(F)nc1)c1cccc(C(=O)N2CCN(C(=O)Nc3ccc(F)cc3)CC2)c1", "note": "[Compound XVIII, 4-[3-(6-Fluoro-pyridin-3-ylcarbamoyl)-benzoyl]-piperazine-1-carboxylic acid (4-fluoro-phenyl)-amide, reference compound]", "values": [{"measurement": "IC50", "setting": "[1]; [4]", "value": 19500, "unit": "nM"}]}, {"molecule": "O=C(Nc1ccc(F)cc1)N1CCN(C(=O)c2cccc(NS(=O)(=O)c3ccccc3)c2)CC1", "note": "[Compound XX, 4-(3-Benzenesulfonylamino-benzoyl)-piperazine-1-carboxylic acid (4-fluoro-phenyl)-amide, reference compound]", "values": [{"measurement": "IC50", "setting": "[1]; [4]", "value": 19600, "unit": "nM"}]}, {"molecule": "NC(=O)c1ccccc1C(=O)N1CCN(C(=O)Nc2ccc(F)cc2)CC1", "note": "[Compound XXI, 4-(2-Carbamoyl-benzoyl)-piperazine-1-carboxylic acid (4-fluoro-phenyl)-amide, reference compound]", "values": [{"measurement": "IC50", "setting": "[1]; [4]", "value": 16800, "unit": "nM"}]}, {"molecule": "O=C(Nc1ccc(F)cc1)N1CCN(C(=O)c2ccccc2CO)CC1", "note": "[Compound XXIII, 4-(2-Hydroxymethyl-benzoyl)-piperazine-1-carboxylic acid (4-fluoro-phenyl)-amide]", "values": [{"measurement": "IC50", "setting": "[1]", "value": 16200, "unit": "nM"}]}, {"molecule": "COC(=O)c1ccccc1C(=O)N1CCN(C(=O)Nc2ccc(F)cc2)CC1", "note": "[XIII, 2-[4-(4-Fluoro-phenylcarbamoyl)-piperazine-1-carbonyl]-benzoic acid methyl ester, reference compound]", "values": [{"measurement": "IC50", "setting": "[1]; [4]", "value": 28200, "unit": "nM"}]}, {"molecule": "O=C(Nc1ccc(F)cc1)N1CCN(C(=O)c2ccccc2Oc2ccccc2)CC1", "note": "[XIV, 4-(2-Phenoxy-benzoyl)-piperazine-1-carboxylic acid (4-fluoro-phenyl)-amide, reference compound]", "values": [{"measurement": "IC50", "setting": "[1]; [4]", "value": 180000, "unit": "nM"}]}, {"molecule": "O=C(Nc1ccc(F)cc1)N1CCN(C(=O)c2cccc(F)n2)CC1", "note": "[XXIII, 4-(6-Fluoro-pyridine-2-carbonyl)-piperazine-1-carboxylic acid (4-fluoro-phenyl)-amide]", "values": [{"measurement": "half-life", "setting": "[2]", "value": "> 60", "unit": "min"}]}, {"molecule": "O=C(Nc1ccc(N2CCOCC2)nc1)N1CCN(Cc2cccc(F)c2)CC1", "note": "[XXIV, 4-(3-Fluoro-benzyl)-piperazine-1-carboxylic acid (6-morpholin-4-yl-pyridin-3-yl)-amide]", "values": [{"measurement": "half-life", "setting": "[2]", "value": 31.4, "unit": "min"}]}, {"molecule": "O=C(Nc1ccc(F)cc1)N1CCN(Cc2cccc3c2OC(F)(F)O3)CC1", "note": "[XXIX, 4-(2,2-Difluoro-benzo[1,3]dioxol-4-ylmethyl)-piperazine-1-carboxylic acid (4-fluoro-phenyl)-amide]", "values": [{"measurement": "half-life", "setting": "[2]", "value": 12.1, "unit": "min"}]}, {"molecule": "O=C(Nc1ccc(N2CCOCC2)nc1)N1CCN(Cc2ccccc2)CC1", "note": "[XXV, 4-Benzyl-piperazine-1-carboxylic acid (6-morpholin-4-yl-pyridin-3-yl)-amide]", "values": [{"measurement": "half-life", "setting": "[2]", "value": 27.6, "unit": "min"}]}, {"molecule": "O=C(Nc1ccc(F)cc1)N1CCN(Cc2ccccc2O)CC1", "note": "[XXVI, 4-(2-Hydroxy-benzyl)-piperazine-1-carboxylic acid (4-fluoro-phenyl)-amide]", "values": [{"measurement": "half-life", "setting": "[2]", "value": 21.9, "unit": "min"}]}, {"molecule": "O=C(Nc1ccc(N2CCNCC2)c(F)c1)N1CCN(Cc2cccc(F)n2)CC1", "note": "[XXVII, 4-(6-Fluoro-pyridin-2-ylmethyl)-piperazine-1-carboxylic acid (3-fluoro-4-piperazin-1-yl-phenyl)-amide]", "values": [{"measurement": "half-life", "setting": "[2]", "value": 20.9, "unit": "min"}]}, {"molecule": "O=C(Nc1ccc(N2CCOCC2)nc1)N1CCN(Cc2cc(F)cc(F)c2)CC1", "note": "[XXVIII, 4-(3,5-Difluoro-benzyl)-piperazine-1-carboxylic acid (6-morpholin-4-yl-pyridin-3-yl)-amide]", "values": [{"measurement": "half-life", "setting": "[2]", "value": 15.5, "unit": "min"}]}, {"molecule": "O=C(Nc1ccc(F)cc1)N1CCN(Cc2cccc(F)c2)CC1", "note": "[XXX, 4-(3-Fluoro-benzyl)-piperazine-1-carboxylic acid (4-fluoro-phenyl)-amide]", "values": [{"measurement": "half-life", "setting": "[2]", "value": 10.6, "unit": "min"}]}, {"molecule": "Cc1ccccc1CN1CCN(C(=O)Nc2ccc(F)cc2)CC1", "note": "[XXXI, 4-(2-Methyl-benzyl)-piperazine-1-carboxylic acid (4-fluoro-phenyl)-amide]", "values": [{"measurement": "half-life", "setting": "[2]", "value": 4.4, "unit": "min"}]}]}
